Assay results as given in ChEMBL document CHEMBL2094195, “Structure-activity relationship data for a series of N-(phenylmehtyl)-2-(1H-pyrazol-4-yl)acetamide and N-(phenylmethyl)2-(4-isoxazolyl) acetamide antagonists of the P2X7 receptor (Supplementary Bioactivity Data for publication CHEMBL1157114)”.

Target: T1, P2X purinoceptor 7 (Homo sapiens, UniProt Q99572)
T1 sequence (Q99572 whole entry): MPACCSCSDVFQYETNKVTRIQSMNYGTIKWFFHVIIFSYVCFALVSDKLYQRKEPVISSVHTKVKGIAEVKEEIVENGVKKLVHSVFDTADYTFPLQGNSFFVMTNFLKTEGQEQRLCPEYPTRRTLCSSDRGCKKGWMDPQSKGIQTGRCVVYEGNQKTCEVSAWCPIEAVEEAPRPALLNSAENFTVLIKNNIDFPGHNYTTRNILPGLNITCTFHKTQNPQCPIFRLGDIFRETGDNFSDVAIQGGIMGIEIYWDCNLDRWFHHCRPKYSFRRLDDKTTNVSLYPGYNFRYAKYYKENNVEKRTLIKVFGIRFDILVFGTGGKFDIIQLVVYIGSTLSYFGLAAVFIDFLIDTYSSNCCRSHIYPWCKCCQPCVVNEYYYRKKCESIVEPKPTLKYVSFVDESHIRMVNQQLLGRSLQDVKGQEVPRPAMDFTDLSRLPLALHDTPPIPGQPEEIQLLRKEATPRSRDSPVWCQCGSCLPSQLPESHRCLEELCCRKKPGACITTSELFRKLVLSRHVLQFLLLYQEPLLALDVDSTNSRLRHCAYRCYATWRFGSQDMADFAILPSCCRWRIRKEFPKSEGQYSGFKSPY
Assay: SUPPLEMENTARY: Inhibition of human P2X7 receptor assessed as inhibition of ethidium bromide accumulation. Same assay as CHEMBL1103860

SMILES | IC50 [nM]
Cc1ccccc1CNC(=O)Cc1c(C)n[nH]c1C | 158
Cc1noc(C)c1CC(=O)NCc1ccc(Cl)c(Cl)c1 | 316
Cc1noc(C)c1CC(=O)NCc1ccc(F)cc1Br | 50.1
Cc1noc(C)c1CC(=O)NCc1ccc(F)c(F)c1F | 158
Cc1ccc(F)c(CNC(=O)Cc2c(C)noc2C)c1Cl | 200
Cc1n[nH]c(C)c1CC(=O)N[C@H]1CCCc2ccccc21 | 100
Cc1noc(C)c1CC(=O)NCc1cccc(Cl)c1Cl | 31.6
Cc1noc(C)c1CC(=O)NCc1ccc(F)c(Cl)c1F | 39.8
Cc1noc(C)c1CC(=O)NCc1ccccc1Br | 501
CC(C)c1n[nH]c(C(C)C)c1CC(=O)NCc1ccc(F)c(F)c1F | 158
Cc1ccc(CNC(=O)Cc2c(C)noc2C)c(C)c1 | 251
Cc1n[nH]c(C)c1CC(=O)NCc1ccc(Cl)c(Cl)c1 | 200
Cc1ccc(F)c(CNC(=O)Cc2c(C)n[nH]c2C)c1Cl | 79.4
Cc1n[nH]c(C)c1CC(=O)NCc1ccccc1Br | 251
Cc1noc(C)c1CC(=O)NCc1ccc(Cl)c(C(F)(F)F)c1 | 158
Cc1ccc(Cl)c(CNC(=O)Cc2c(C)n[nH]c2C)c1F | 631
Cc1n[nH]c(C)c1CC(=O)NCc1cc(Cl)ccc1Cl | 316
Cc1noc(C)c1CC(=O)NCc1c(F)cccc1Cl | 398
Cc1n[nH]c(C)c1CC(=O)NCc1cccc(Cl)c1C | 5.01
Cc1noc(C)c1CC(=O)NCc1ccc(Cl)cc1 | 794
Cc1ccc(CNC(=O)Cc2c(C)noc2C)c(F)c1 | 158
Cc1cc(Cl)ccc1CNC(=O)Cc1c(C)noc1C | 25.1
Cc1noc(C)c1CC(=O)NCc1c(Cl)cccc1Cl | 63.1
Cc1ccc(CNC(=O)Cc2c(C)n[nH]c2C)c(C)c1 | 158
Cc1ccccc1CNC(=O)Cc1c(C)noc1C | 501
Cc1noc(C)c1CC(=O)NCc1ccc(F)c(F)c1Cl | 31.6
Cc1noc(C)c1CC(=O)NCc1ccc(C(F)(F)F)c(F)c1 | 398

SMILES | IC50 [nM]
Cc1cc(F)ccc1CNC(=O)Cc1c(C)noc1C | 100
Cc1noc(C)c1CC(=O)NCc1cccc(Cl)c1F | 200
Cc1cccc(Cl)c1CNC(=O)Cc1c(C)noc1C | 25.1
Cc1ccc(CNC(=O)Cc2c(C)noc2C)c(F)c1F | 794
Cc1noc(C)c1CC(=O)NCc1cccc(Cl)c1C | 25.1
Cc1cccc(CNC(=O)Cc2c(C)noc2C)c1C | 200
Cc1n[nH]c(C(F)(F)F)c1CC(=O)NCc1cccc(C(F)(F)F)c1Cl | 2.51
Cc1cccc(Cl)c1CNC(=O)Cc1c(C)n[nH]c1C | 15.8
Cc1n[nH]c(C)c1CC(=O)NCc1ccc(F)c(C(F)(F)F)c1 | 50.1
Cc1noc(C)c1CC(=O)NCc1ccc(F)cc1C(F)(F)F | 200
CCc1n[nH]c(CC)c1CC(=O)NCc1ccc(F)c(F)c1F | 31.6
Cc1n[nH]c(C)c1CC(=O)NCc1c(Cl)cccc1Cl | 31.6
Cc1noc(C)c1CC(=O)NCc1cccc(F)c1C | 1000
Cc1n[nH]c(C)c1CC(=O)NCc1c(F)cccc1Cl | 158
Cc1n[nH]c(C)c1CC(=O)NCc1ccc(Br)cc1F | 50.1
Cc1n[nH]c(C)c1CC(=O)NCc1ccc(C(F)(F)F)cc1 | 398
Cc1noc(C)c1CC(=O)NCc1ccc(F)cc1F | 501
Cc1n[nH]c(C)c1CC(=O)NCc1cc(Cl)cc(Cl)c1 | 1000
Cc1noc(C)c1CC(=O)NCc1ccccc1Cl | 100
CCc1noc(CC)c1CC(=O)NCc1ccc(F)cc1Cl | 39.8
Cc1n[nH]c(C(F)(F)F)c1CC(=O)NCc1ccc(F)c(F)c1Cl | 5.01
Cc1noc(C)c1CC(=O)NCc1cccc(C(F)(F)F)c1C | 10
Cc1noc(C)c1CC(=O)NCc1cccc(C(F)(F)F)c1F | 31.6
CC(C)c1noc(C(C)C)c1CC(=O)NCc1ccc(F)cc1Cl | 158
Cc1n[nH]c(C)c1CC(=O)NCc1ccc(F)c(F)c1F | 63.1
Cc1n[nH]c(C)c1CC(=O)NCc1cc(F)ccc1Cl | 398
Cc1[nH]nc(C(C)(C)C)c1CC(=O)NCc1ccc(F)cc1Cl | 158
